The target of one data set is CDC34. As to the kind of experiment: reporter assay of Huesken 2005. To be noted: siRNA. In general terms: A reporter such as luciferase makes a cellular process visible.
For a further data set, the target named is UBE2I. As to the kind of experiment: reporter assay of Huesken 2005. To be noted: siRNA.

Oligonucleotides are written 5' to 3', each unit as a sugar letter and its base; * is a phosphorothioate linkage, no mark a phosphodiester; rarer units and linkages stand in square brackets, end groups in braces. Plain capitals give the bases only. Oligonucleotides are given in HELM: sugar(base)linkage, 5' to 3'; d 2'-deoxyribose, r ribose, m 2'-O-methylribose, p phosphate. ss, as = sense and antisense strand; d = 2'-deoxy (DNA); r = 2'-OH (RNA)
Further: test concentration or dose not given here.

For the substance “RNA1{r(A)p.r(G)p.r(G)p.r(A)p.r(A)p.r(G)p.r(A)p.r(G)p.r(C)p.r(C)p.r(G)p.r(G)p.r(U)p.r(C)p.r(G)p.r(A)p.r(G)p.r(G)p.r(G)p.d(T)p.d(T)}|RNA2{r(C)p.r(C)p.r(C)p.r(U)p.r(C)p.r(G)p.r(A)p.r(C)p.r(C)p.r(G)p.r(G)p.r(C)p.r(U)p.r(C)p.r(U)p.r(U)p.r(C)p.r(C)p.r(U)p.d(G)p.d(C)}$$$RNA1{StrandType:ss}|RNA2{StrandType:as}$”, in the data set with CDC34, the normalised inhibition (eCFP-eYFP dual reporter) was found to be 44.3%.

The substance “RNA1{r(C)p.r(C)p.r(A)p.r(C)p.r(C)p.r(C)p.r(G)p.r(C)p.r(C)p.r(G)p.r(G)p.r(U)p.r(G)p.r(G)p.r(A)p.r(C)p.r(G)p.r(A)p.r(C)p.d(T)p.d(T)}|RNA2{r(G)p.r(U)p.r(C)p.r(G)p.r(U)p.r(C)p.r(C)p.r(A)p.r(C)p.r(C)p.r(G)p.r(G)p.r(C)p.r(G)p.r(G)p.r(G)p.r(U)p.r(G)p.r(G)p.d(A)p.d(G)}$$$RNA1{StrandType:ss}|RNA2{StrandType:as}$” yielded a normalised inhibition (eCFP-eYFP dual reporter) in the data set with CDC34 of 44.2%.

In the data set with CDC34, “RNA1{r(G)p.r(G)p.r(G)p.r(C)p.r(G)p.r(G)p.r(C)p.r(U)p.r(A)p.r(C)p.r(U)p.r(U)p.r(C)p.r(A)p.r(A)p.r(G)p.r(G)p.r(C)p.r(G)p.d(T)p.d(T)}|RNA2{r(C)p.r(G)p.r(C)p.r(C)p.r(U)p.r(U)p.r(G)p.r(A)p.r(A)p.r(G)p.r(U)p.r(A)p.r(G)p.r(C)p.r(C)p.r(G)p.r(C)p.r(C)p.r(C)p.d(T)p.d(C)}$$$RNA1{StrandType:ss}|RNA2{StrandType:as}$” displayed a normalised inhibition (eCFP-eYFP dual reporter) of 29.8%.

The substance “RNA1{r(G)p.r(A)p.r(C)p.r(C)p.r(A)p.r(U)p.r(U)p.r(C)p.r(U)p.r(C)p.r(C)p.r(U)p.r(G)p.r(A)p.r(G)p.r(U)p.r(G)p.r(U)p.r(G)p.d(T)p.d(T)}|RNA2{r(C)p.r(A)p.r(C)p.r(A)p.r(C)p.r(U)p.r(C)p.r(A)p.r(G)p.r(G)p.r(A)p.r(G)p.r(A)p.r(A)p.r(U)p.r(G)p.r(G)p.r(U)p.r(C)p.d(C)p.d(T)}$$$RNA1{StrandType:ss}|RNA2{StrandType:as}$” had a normalised inhibition (eCFP-eYFP dual reporter) in the data set with CDC34 of 44.9%.

Substance “RNA1{r(C)p.r(U)p.r(G)p.r(A)p.r(G)p.r(U)p.r(G)p.r(U)p.r(G)p.r(A)p.r(U)p.r(C)p.r(U)p.r(C)p.r(C)p.r(C)p.r(U)p.r(C)p.r(C)p.d(T)p.d(T)}|RNA2{r(G)p.r(G)p.r(A)p.r(G)p.r(G)p.r(G)p.r(A)p.r(G)p.r(A)p.r(U)p.r(C)p.r(A)p.r(C)p.r(A)p.r(C)p.r(U)p.r(C)p.r(A)p.r(G)p.d(G)p.d(A)}$$$RNA1{StrandType:ss}|RNA2{StrandType:as}$” registered a normalised inhibition (eCFP-eYFP dual reporter) with CDC34 of 23.2%.

The substance “RNA1{r(U)p.r(G)p.r(A)p.r(U)p.r(C)p.r(U)p.r(C)p.r(C)p.r(C)p.r(U)p.r(C)p.r(C)p.r(U)p.r(G)p.r(A)p.r(A)p.r(C)p.r(G)p.r(A)p.d(T)p.d(T)}|RNA2{r(U)p.r(C)p.r(G)p.r(U)p.r(U)p.r(C)p.r(A)p.r(G)p.r(G)p.r(A)p.r(G)p.r(G)p.r(G)p.r(A)p.r(G)p.r(A)p.r(U)p.r(C)p.r(A)p.d(C)p.d(A)}$$$RNA1{StrandType:ss}|RNA2{StrandType:as}$” had a normalised inhibition (eCFP-eYFP dual reporter) with CDC34 of 70%.

Turning to “sense rArCrArGrUrGrUrGrCrCrUrGrUrCrCrArUrCrUdTdT / antisense rArGrArUrGrGrArCrArGrGrCrArCrArCrUrGrUdCdC”, in the data set with UBE2I, the normalised inhibition (eCFP-eYFP dual reporter) stood at 59.2%.

Regarding “sense rArCrCrArArArArUrGrUrArArArUrUrCrGrArAdTdT / antisense rUrUrCrGrArArUrUrUrArCrArUrUrUrUrGrGrUdGdG”, the normalised inhibition (eCFP-eYFP dual reporter) with UBE2I amounted to 86.4%.

On to “sense rUrGrGrGrArArGrGrArGrGrCrUrUrGrUrUrUrAdTdT / antisense rUrArArArCrArArGrCrCrUrCrCrUrUrCrCrCrAdCdG”, for which the normalised inhibition (eCFP-eYFP dual reporter) with UBE2I is 78%.

The substance “sense rGrArArArGrGrGrArCrUrCrCrGrUrGrGrGrArAdTdT / antisense rUrUrCrCrCrArCrGrGrArGrUrCrCrCrUrUrUrCdTdT” had a normalised inhibition (eCFP-eYFP dual reporter) in the data set with UBE2I of 89.3%.

Take “sense rUrUrCrGrArArCrCrArCrCrArUrUrArUrUrUrCdTdT / antisense rGrArArArUrArArUrGrGrUrGrGrUrUrCrGrArAdTdT”: the normalised inhibition (eCFP-eYFP dual reporter) in the data set with UBE2I amounted to 59.1%.

As to “sense rGrCrArCrGrArUrGrArArCrCrUrCrArUrGrArAdTdT / antisense rUrUrCrArUrGrArGrGrUrUrCrArUrCrGrUrGrCdCdA”, in the data set with UBE2I, the normalised inhibition (eCFP-eYFP dual reporter) was 84.4%.

Turning to “sense rArArUrGrUrGrUrArCrCrCrUrUrCrGrGrGrGrAdTdT / antisense rUrCrCrCrCrGrArArGrGrGrUrArCrArCrArUrUdCdG”, the normalised inhibition (eCFP-eYFP dual reporter) in the data set with UBE2I turned out to be 59.6%.

In the data set with UBE2I, “sense rUrArUrUrArGrGrArArUrArCrArGrGrArArCrUdTdT / antisense rArGrUrUrCrCrUrGrUrArUrUrCrCrUrArArUrAdGdG” displayed a normalised inhibition (eCFP-eYFP dual reporter) of 71.9%.

Substance “sense rArUrUrCrGrArArCrCrArCrCrArUrUrArUrUrUdTdT / antisense rArArArUrArArUrGrGrUrGrGrUrUrCrGrArArUdTdT” registered a normalised inhibition (eCFP-eYFP dual reporter) in the data set with UBE2I of 81%.

For “sense rUrGrArUrUrArUrCrCrArUrCrUrUrCrGrCrCrAdTdT / antisense rUrGrGrCrGrArArGrArUrGrGrArUrArArUrCrAdTdC”, in the data set with UBE2I, the normalised inhibition (eCFP-eYFP dual reporter) worked out at 59%.

Turning to “sense rGrGrArGrGrCrUrUrGrUrUrUrArArArCrUrArCdTdT / antisense rGrUrArGrUrUrUrArArArCrArArGrCrCrUrCrCdTdT”, the normalised inhibition (eCFP-eYFP dual reporter) with UBE2I came out at 82.5%.

Substance “sense rUrCrCrGrUrGrGrGrArArGrGrArGrGrCrUrUrGdTdT / antisense rCrArArGrCrCrUrCrCrUrUrCrCrCrArCrGrGrAdGdT” displayed a normalised inhibition (eCFP-eYFP dual reporter) with UBE2I of 52.4%.

As to “sense rGrArGrUrGrCrGrCrCrArUrUrCrCrArGrGrArAdTdT / antisense rUrUrCrCrUrGrGrArArUrGrGrCrGrCrArCrUrCdCdC”, the normalised inhibition (eCFP-eYFP dual reporter) in the data set with UBE2I amounted to 72.6%.

On to “sense rArCrCrArUrUrArUrUrUrCrArCrCrCrGrArArUdTdT / antisense rArUrUrCrGrGrGrUrGrArArArUrArArUrGrGrUdGdG”, for which the normalised inhibition (eCFP-eYFP dual reporter) with UBE2I came to 88.3%.

In the data set with UBE2I, “sense rArUrUrUrGrGrUrUrUrCrGrUrGrGrCrUrGrUrCdTdT / antisense rGrArCrArGrCrCrArCrGrArArArCrCrArArArUdGdG” yielded a normalised inhibition (eCFP-eYFP dual reporter) of 51.6%.

In the data set with UBE2I, “sense rArCrCrArArArUrArUrCrCrArArGrArCrCrCrAdTdT / antisense rUrGrGrGrUrCrUrUrGrGrArUrArUrUrUrGrGrUdTdC” displayed a normalised inhibition (eCFP-eYFP dual reporter) of 83.9%.

For “sense rGrArArArGrArArArGrGrGrArCrUrCrCrGrUrGdTdT / antisense rCrArCrGrGrArGrUrCrCrCrUrUrUrCrUrUrUrCdCdT”, in the data set with UBE2I, the normalised inhibition (eCFP-eYFP dual reporter) is 53.1%.

In the data set with UBE2I, “sense rCrCrArGrCrCrArUrCrArCrArArUrCrArArArCdTdT / antisense rGrUrUrUrGrArUrUrGrUrGrArUrGrGrCrUrGrGdCdC” had a normalised inhibition (eCFP-eYFP dual reporter) of 56%.

For the substance “sense rCrCrCrGrArUrGrGrCrArCrGrArUrGrArArCrCdTdT / antisense rGrGrUrUrCrArUrCrGrUrGrCrCrArUrCrGrGrGdAdT”, the normalised inhibition (eCFP-eYFP dual reporter) with UBE2I turned out to be 55%.

On to “sense rGrGrArCrArArGrGrArCrUrGrGrArGrGrCrCrAdTdT / antisense rUrGrGrCrCrUrCrCrArGrUrCrCrUrUrGrUrCrCdTdC”, for which the normalised inhibition (eCFP-eYFP dual reporter) in the data set with UBE2I turned out to be 85.9%.

As to “sense rCrCrArGrGrArArArGrArArArGrGrGrArCrUrCdTdT / antisense rGrArGrUrCrCrCrUrUrUrCrUrUrUrCrCrUrGrGdAdA”, in the data set with UBE2I, the normalised inhibition (eCFP-eYFP dual reporter) was 54.9%.

In turn, “sense rArGrGrGrArCrUrCrCrGrUrGrGrGrArArGrGrAdTdT / antisense rUrCrCrUrUrCrCrCrArCrGrGrArGrUrCrCrCrUdTdT” came in with a normalised inhibition (eCFP-eYFP dual reporter) in the data set with UBE2I of 72.1%.

For “sense rCrArGrArUrCrCrUrArUrUrArGrGrArArUrArCdTdT / antisense rGrUrArUrUrCrCrUrArArUrArGrGrArUrCrUrGdTdT”, the normalised inhibition (eCFP-eYFP dual reporter) in the data set with UBE2I came out at 74.4%.

On to “sense rUrUrArArArCrUrArCrGrGrArUrGrCrUrUrUrUdTdT / antisense rArArArArGrCrArUrCrCrGrUrArGrUrUrUrArAdAdC”, for which the normalised inhibition (eCFP-eYFP dual reporter) in the data set with UBE2I amounted to 50.2%.

Substance “sense rUrArCrArCrGrArUrUrUrArCrUrGrCrCrArArAdTdT / antisense rUrUrUrGrGrCrArGrUrArArArUrCrGrUrGrUrAdGdG” yielded a normalised inhibition (eCFP-eYFP dual reporter) in the data set with UBE2I of 92.9%.

Regarding “sense rUrArUrUrUrCrArCrCrCrGrArArUrGrUrGrUrAdTdT / antisense rUrArCrArCrArUrUrCrGrGrGrUrGrArArArUrAdAdT”, the normalised inhibition (eCFP-eYFP dual reporter) in the data set with UBE2I was 78.9%.

“sense rArUrGrUrArArArUrUrCrGrArArCrCrArCrCrAdTdT / antisense rUrGrGrUrGrGrUrUrCrGrArArUrUrUrArCrArUdTdT” came in with a normalised inhibition (eCFP-eYFP dual reporter) with UBE2I of 75%.

The substance “sense rCrGrGrArUrGrCrUrUrUrUrCrArArArGrArUrGdTdT / antisense rCrArUrCrUrUrUrGrArArArArGrCrArUrCrCrGdTdA” came in with a normalised inhibition (eCFP-eYFP dual reporter) with UBE2I of 87.3%.

Take “sense rArArCrCrArArArUrArUrCrCrArArGrArCrCrCdTdT / antisense rGrGrGrUrCrUrUrGrGrArUrArUrUrUrGrGrUrUdCdA”: the normalised inhibition (eCFP-eYFP dual reporter) in the data set with UBE2I worked out at 48.9%.

In turn, “sense rArGrArArArGrGrGrArCrUrCrCrGrUrGrGrGrAdTdT / antisense rUrCrCrCrArCrGrGrArGrUrCrCrCrUrUrUrCrUdTdT” showed a normalised inhibition (eCFP-eYFP dual reporter) with UBE2I of 63.1%.

Substance “sense rArArGrArArArGrGrGrArCrUrCrCrGrUrGrGrGdTdT / antisense rCrCrCrArCrGrGrArGrUrCrCrCrUrUrUrCrUrUdTdC” gave a normalised inhibition (eCFP-eYFP dual reporter) in the data set with UBE2I of 45.6%.

As for “sense rGrCrUrUrGrUrUrUrArArArCrUrArCrGrGrArUdTdT / antisense rArUrCrCrGrUrArGrUrUrUrArArArCrArArGrCdCdT”, in the data set with UBE2I, the normalised inhibition (eCFP-eYFP dual reporter) is 92.2%.

For “sense rCrGrArArUrGrUrGrUrArCrCrCrUrUrCrGrGrGdTdT / antisense rCrCrCrGrArArGrGrGrUrArCrArCrArUrUrCrGdGdG”, in the data set with UBE2I, the normalised inhibition (eCFP-eYFP dual reporter) was 45.1%.

The values are drawn from the OligoGym collection.
